Laboratory results published in patent US10125095B2, “Abscisic acid derivative” (NATIONAL UNIVERSITY CORPORATION SHIZUOKA UNIVERSITY, priority 2014, dated 2018).

Tests used:
[1] = system: seeds of thale cress (Arabidopsis thaliana, Col-0); test: Thale cress seed germination test; format: in vivo
Procedure: Seeds of thale cress (Arabidopsis thaliana, Col-0) were immersed in 500 μL of an aqueous solution of 70% ethanol for 30 minutes, subsequently in 500 μL of a 100% ethanol solution for 1 minute, washed five times in 1 mL of distilled water, then immersed in distilled water and, in a dark place, vernalized at 4° C. for 3 days. A solution of the sample in methanol was put in a 1.5 mL-microtube, and methanol was removed therefrom under reduced pressure. An aqueous solution of 0.5% agar (containing ½ MS medium inorganic salts) at 70° C. was added thereto and stirred, and subsequently the obtained mixture was placed in a 96-well plate to prepare the medium containing the sample. All samples were prepared so as to have a concentration of 3 μM of the compound in Examples 1 to 9 and Comparative Example 1. Further, when ABA is applied, the ABA concentration was adjusted to 0.3 μM. 20 to 30 vernalized seeds of thale cress were planted in each well and cultured at 22° C. under continuous light to monitor the number of seeds germinated over time. The germination rate was calculated by the following formula (1). Note that those cultured in medium prepared using methanol in the same manner were used as controls. […] Germination rate (%)=Number of seeds germinated/Number of seeds planted×100 (1)
The same test was carried out as in Test Example 1 with the concentrations of the compound of Example 1 for treatment varying from 0.3 μM to 30 μM.
Similarly, the same test was carried out with the concentrations of the compound of Example 2 for treatment varying from 0.3 μM to 30 μM.
The same test was carried out as in Test Example 2 with the concentrations of the compounds for treatment varying from 0.3 μM to 3 μM to compare the recovery effects on seed germination rate of the compound of Example 1 and the compound of Comparative Example 1.

PYR1 = target: T1, PYR1 (Arabidopsis thaliana, UniProt O49686); test: Protein dephosphorylation enzyme activity test, PYR1; format: biochemical, thale cress; settings: control = 100%
T1 construct: 6xHis (N); made in house; host or cells: Escherichia coli BL21-codonplus(DE3)-RIPL (PYL); BL21(DE3)pLysS (HAB1)
T1 sequence (O49686 1-191): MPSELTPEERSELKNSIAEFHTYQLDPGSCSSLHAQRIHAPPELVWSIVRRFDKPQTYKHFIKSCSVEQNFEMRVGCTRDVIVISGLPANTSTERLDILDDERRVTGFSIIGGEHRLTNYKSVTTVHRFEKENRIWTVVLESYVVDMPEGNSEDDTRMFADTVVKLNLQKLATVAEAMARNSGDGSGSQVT
Procedure: A plasmid (pGex-2T-GST-HAB1 or pET28-6×His-PYL) encoded with PYR/PYL/RCAR proteins (PYL, abscisic acid receptor) or protein dephosphorylation enzyme HAB1 of thale cress was transformed to Escherichia coli (HAB1:BL21(DE3)pLysS, PYL:BL21-codonplus(DE3)-RIPL). Isopropyl-β-thiogalactopyranoside was added to the culture broth, which had been subjected to pre-culture (30° C., 180 rpm, 15 hours) and main culture (30° C., 180 rpm, 4 hours), and the protein-expressed (16° C., 150 rpm, 18 hours) crude enzyme solution was purified using FPLC thereby preparing the recombined PYL (PYR1, PYL1-6, PYL8-10) and HAB1. β-Mercaptoethanol, a manganese chloride aqueous solution, HAB1, PYL, a solution of the sample in dimethylsulfoxide and ultrapure water were sequentially added to a 96-well plate, allowed to stand at 22° C. for 30 minutes. Subsequently p-nitrophenylphosphate, which is the artificial substrate of HAB1, was added thereto to start the reaction, and the plate was placed in a microplate reader (TECAN, Infinite™ N200 NanoQuant). The absorbance at 405 nm due to p-nitrophenol, which is the hydrolysate of p-nitrophenylphosphate, was measured 3 minutes later from the reaction initiation, and HAB1 activity was calculated by the following formula (2). Note that the fraction to which only dimethylsulfoxide was added was considered to be the control and the activity thereof was defined as 100%. […] HAB1 specific activity (%)=Absorbance when sample was added/Absorbance of control×100 (2)

recombined PYL5 = target: T2, recombined PYL5 (Arabidopsis thaliana, UniProt Q9FLB1); test: Bonding affinity measurement using an isothermal titration calorimeter; format: binding, thale cress; settings: ITC, 20° C., sodium phosphate buffer
T2 construct: 6xHis (N); made in house; host or cells: Escherichia coli BL21-codonplus(DE3)-RIPL
T2 sequence (Q9FLB1 1-203): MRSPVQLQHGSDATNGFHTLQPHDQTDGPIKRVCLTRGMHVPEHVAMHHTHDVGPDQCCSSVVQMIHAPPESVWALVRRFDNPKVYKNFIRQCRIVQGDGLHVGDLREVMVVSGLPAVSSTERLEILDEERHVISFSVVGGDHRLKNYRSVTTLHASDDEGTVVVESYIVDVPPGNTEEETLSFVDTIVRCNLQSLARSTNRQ
Procedure: A sodium phosphate buffer solution of a recombined PYL5 was prepared in the same procedure as in Test Example 5, and put in a reaction cell of an isothermal titration calorimeter (GE Healthcare, MicroCal iTC200), and a sodium phosphate buffer solution of the compound of Example 1 was put in the syringe. Then, the calorimeter was set to 20° C. and the measurement was carded out. The same measurement as above was also carried out for the compounds of Examples 7 to 9.

[2] = 3 μM compound co-applied with 0.3 μM ABA

SMILES: C#CCO[C@@H]1C=C(C)[C@](O)(/C=C/C(C)=C\C(=O)O)C(C)(C)C1 [Example 3, (2Z,4E)-5-((1S,4S)-1-hydroxy-2,6,6-trimethyl-4-(prop-2-yn-1-yloxy)cyclohex-2-en-1-yl)-3-methylpenta-2,4-dienoic acid]
- Germination rate (%) 24 Hours later [1, 2]: 0%
- Germination rate (%) 36 Hours later [1, 2]: 6.9%
- Germination rate (%) 48 Hours later [1, 2]: 20.7%
- Germination rate (%) 60 Hours later [1, 2]: 48.3%
- Germination rate (%) 24 Hours later ([1]; compound alone, 3 μM): 0%
- Germination rate (%) 36 Hours later ([1]; compound alone, 3 μM): 13.3%
- Germination rate (%) 48 Hours later ([1]; compound alone, 3 μM): 60%
- Germination rate (%) 60 Hours later ([1]; compound alone, 3 μM): 71.1%

SMILES: CC1=C[C@@H](OCC#Cc2ccc(C(F)(F)F)cc2)CC(C)(C)[C@@]1(O)/C=C/C(C)=C\C(=O)O [Example 4, (2Z,4E)-5-((1S,4S)-1-hydroxy-2,6,6-trimethyl-4-((3-(4-trifluoromethyl)phenylprop-2-yn-1-yl)oxy)cyclohex-2-en-1-yl)-3-methylpenta-2,4-dienoic acid]
- HAB1 Specific activity (%) PYR1 (PYR1; ABA + compound): 36.7%
- HAB1 Specific activity (%) PYR1 (PYR1; sample alone): 55.4%
- Germination rate (%) 24 Hours later [1, 2]: 0%
- Germination rate (%) 36 Hours later [1, 2]: 29%
- Germination rate (%) 48 Hours later [1, 2]: 58%
- Germination rate (%) 60 Hours later [1, 2]: 100%
- Germination rate (%) 24 Hours later ([1]; compound alone, 3 μM): 8%
- Germination rate (%) 36 Hours later ([1]; compound alone, 3 μM): 33%
- Germination rate (%) 48 Hours later ([1]; compound alone, 3 μM): 75%
- Germination rate (%) 60 Hours later ([1]; compound alone, 3 μM): 92%

SMILES: COc1ccc(C#CCO[C@@H]2C=C(C)[C@](O)(/C=C/C(C)=C\C(=O)O)C(C)(C)C2)cc1 [Example 5, (2Z,4E)-5-((1S,4S)-1-hydroxy-2,6,6-trimethyl-4-((3-(4-methoxy)phenylprop-2-yn-1-yl)oxy)cyclohex-2-en-1-yl)-3-methylpenta-2,4-dienoic acid]
- HAB1 Specific activity (%) PYR1 (PYR1; ABA + compound): 50.5%
- HAB1 Specific activity (%) PYR1 (PYR1; sample alone): 92.3%
- Germination rate (%) 24 Hours later [1, 2]: 0%
- Germination rate (%) 36 Hours later [1, 2]: 30%
- Germination rate (%) 48 Hours later [1, 2]: 67%
- Germination rate (%) 60 Hours later [1, 2]: 100%
- Germination rate (%) 24 Hours later ([1]; compound alone, 3 μM): 5%
- Germination rate (%) 36 Hours later ([1]; compound alone, 3 μM): 37%
- Germination rate (%) 48 Hours later ([1]; compound alone, 3 μM): 79%
- Germination rate (%) 60 Hours later ([1]; compound alone, 3 μM): 95%

SMILES: CC(=O)c1ccc(C#CCO[C@@H]2C=C(C)[C@](O)(/C=C/C(C)=C\C(=O)O)C(C)(C)C2)cc1 [Example 6, (2Z,4E)-5-((1S,4S)-1-hydroxy-2,6,6-trimethyl-4-((3-(4-acetyl)phenylprop-2-yn-1-yl)oxy)cyclohex-2-en-1-yl)-3-methylpenta-2,4-dienoic acid]
- HAB1 Specific activity (%) PYR1 (PYR1; ABA + compound): 41.5%
- HAB1 Specific activity (%) PYR1 (PYR1; sample alone): 87.9%
- Germination rate (%) 24 Hours later [1, 2]: 7%
- Germination rate (%) 36 Hours later [1, 2]: 28%
- Germination rate (%) 48 Hours later [1, 2]: 52%
- Germination rate (%) 60 Hours later [1, 2]: 72%
- Germination rate (%) 24 Hours later ([1]; compound alone, 3 μM): 0%
- Germination rate (%) 36 Hours later ([1]; compound alone, 3 μM): 17%
- Germination rate (%) 48 Hours later ([1]; compound alone, 3 μM): 75%
- Germination rate (%) 60 Hours later ([1]; compound alone, 3 μM): 92%

SMILES: CC1=C[C@@H](OCC#Cc2ccc(S(F)(F)(F)(F)F)cc2)CC(C)(C)[C@@]1(O)/C=C/C(C)=C\C(=O)O [Example 8]
- HAB1 Specific activity (%) PYR1 (PYR1; ABA + compound): 62.9%
- HAB1 Specific activity (%) PYR1 (PYR1; sample alone): 105%
- Germination rate (%) 24 Hours later [1, 2]: 0%
- Germination rate (%) 36 Hours later [1, 2]: 0%
- Germination rate (%) 48 Hours later [1, 2]: 23%
- Germination rate (%) 60 Hours later [1, 2]: 89%
- Germination rate (%) 24 Hours later ([1]; compound alone, 3 μM): 0%
- Germination rate (%) 36 Hours later ([1]; compound alone, 3 μM): 60%
- Germination rate (%) 48 Hours later ([1]; compound alone, 3 μM): 100%
- Germination rate (%) 60 Hours later ([1]; compound alone, 3 μM): 100%
- Kd (recombined PYL5): 180 ± 10 nM
- ΔG (recombined PYL5): -9.0 ± 0.1 kcal/mol
- ΔH (recombined PYL5): -4.9 ± 0.1 kcal/mol
- −TΔS (recombined PYL5): -4.1 kcal/mol

SMILES: CC1=C[C@@H](OCCCc2ccccc2)CC(C)(C)[C@@]1(O)/C=C/C(C)=C\C(=O)O [Example 9]
- HAB1 Specific activity (%) PYR1 (PYR1; ABA + compound): 32.1%
- HAB1 Specific activity (%) PYR1 (PYR1; sample alone): 87.8%
- Germination rate (%) 24 Hours later [1, 2]: 0%
- Germination rate (%) 36 Hours later [1, 2]: 60%
- Germination rate (%) 48 Hours later [1, 2]: 100%
- Germination rate (%) 60 Hours later [1, 2]: 100%
- Germination rate (%) 24 Hours later ([1]; compound alone, 3 μM): 1%
- Germination rate (%) 36 Hours later ([1]; compound alone, 3 μM): 88%
- Germination rate (%) 48 Hours later ([1]; compound alone, 3 μM): 100%
- Germination rate (%) 60 Hours later ([1]; compound alone, 3 μM): 100%
- Kd (recombined PYL5): 360 ± 70 nM
- ΔG (recombined PYL5): -8.6 ± 0.1 kcal/mol
- ΔH (recombined PYL5): -6.7 ± 0.1 kcal/mol
- −TΔS (recombined PYL5): -2.0 kcal/mol
